pIC50: −log10 of the molar value.
target: human αvβ3 receptor (Homo sapiens, UniProt P05106+P06756); assay: Kistrin/Vitronectin Receptor (αvβ3) ELISA test; format: binding; settings: not given
Procedure: Kistrin/Vitronectin Receptor (αvβ3) ELISA Test Protocol:
96-well MaxiSorp plates are coated overnight at […] with 100 μl of Kistrin at 1 μg/ml (dilution in coating buffer: 0.05M (carbonate)/NaOH pH 9.6. The next day, the wells are emptied and the ligands (kistrin) are then fixed (fixation buffers: PBS containing 0.5% BSA (pH=7.4)) for 1 hour at ambient temperature under gentle agitation of 125 rpm. The wells are washed six times (washing buffer: PBS containing 0.05% Tween 20 (pH 7.7) then the following is added per well and in this order:
40 μl of incubation buffer
10 μl of the dilution of the product to be tested (the products are diluted in a 50:50 DMSO/water mixture)
50 μl of human αvβ3 receptor (cf Pytel et al. Methods Enzymol. (1987) 144 (Dilution in incubation buffer, adapted according to the batch of receptor and according to the ligand). The ligand, the αvβ3 receptor and the products to be studied are incubated for 3 hours at ambient temperature with gentle agitation of 125 rpm.
The wells are again washed six times, then incubated for 2 hours at ambient temperature with gentle agitation of 125 rpm, in the presence of 100 μl of anti-receptor antibody coupled to a peroxidase (The 4B12-HRP antibody is diluted in incubation buffer (50 mM TRIS pH 7.4; 0.5% BSA; 0.05% Tween 20; 1 mM MnCl2; 50 μM CaCl2; 50 μM MgCl2; 100 mM NaCl). The dilution is to be adapted according to the batch of receptor.
The wells are then washed six times before measurement of the ligand-receptor bond is carried out using a peroxidase developer kit (TBM Microwell Peroxidase Substrate System Kirkegaard; Ref cat 50-76-00).
This kit contains a flask A of substrate (3,3′,5,5′-tetramethylebenzidine at 0.4 g/l) and a flask B (H2O2 to 0.02% in Citrate/Citric acid). Extemporaneously, one volume of A is mixed with one volume of B, then the reaction mixture is distributed at a rate of 100 μl/wells.
The enzymatic reaction develops between 6 to 10 minutes for Kistrin/αvβ3 then its development is stopped by the addition of 100 μl of 1M phosphoric acid. The optical density is determined at 450 nm.
Expression of the results
The following curve is plotted: the bond percentage as a function of the logarithm of each concentration of the tested product.
For each product IC50 is determined according to the following formula: IC50=(B0+Bmin)/2
B0=Maximum bond in the absence of any product
Bmin=Minimum bond in the presence of the highest concentration of the product.

human αvβ3 receptor, sequence (P06756 31-889 limits assumed): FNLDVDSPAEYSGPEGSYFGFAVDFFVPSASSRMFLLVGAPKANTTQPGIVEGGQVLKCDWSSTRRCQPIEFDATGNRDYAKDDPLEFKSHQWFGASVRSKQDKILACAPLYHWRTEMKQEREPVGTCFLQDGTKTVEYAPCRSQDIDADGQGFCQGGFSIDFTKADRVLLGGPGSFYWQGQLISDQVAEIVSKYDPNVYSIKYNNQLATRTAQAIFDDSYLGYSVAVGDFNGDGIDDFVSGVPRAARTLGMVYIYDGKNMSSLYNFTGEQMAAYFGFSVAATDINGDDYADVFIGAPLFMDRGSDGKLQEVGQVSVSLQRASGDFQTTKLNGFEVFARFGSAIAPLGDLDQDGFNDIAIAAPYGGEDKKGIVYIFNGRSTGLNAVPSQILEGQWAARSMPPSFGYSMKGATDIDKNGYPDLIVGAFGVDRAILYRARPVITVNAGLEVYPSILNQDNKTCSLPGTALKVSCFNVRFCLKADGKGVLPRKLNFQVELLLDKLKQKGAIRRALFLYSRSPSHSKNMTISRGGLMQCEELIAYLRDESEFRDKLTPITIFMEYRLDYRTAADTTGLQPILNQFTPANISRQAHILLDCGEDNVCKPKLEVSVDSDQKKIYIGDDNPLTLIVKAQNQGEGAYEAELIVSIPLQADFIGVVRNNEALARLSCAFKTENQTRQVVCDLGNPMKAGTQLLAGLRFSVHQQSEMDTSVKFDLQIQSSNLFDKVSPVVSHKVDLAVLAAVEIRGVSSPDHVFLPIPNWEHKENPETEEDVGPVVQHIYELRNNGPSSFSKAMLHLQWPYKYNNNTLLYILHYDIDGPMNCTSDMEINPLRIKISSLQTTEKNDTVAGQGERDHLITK
human αvβ3 receptor, sequence (P06756 891-1048 limits assumed): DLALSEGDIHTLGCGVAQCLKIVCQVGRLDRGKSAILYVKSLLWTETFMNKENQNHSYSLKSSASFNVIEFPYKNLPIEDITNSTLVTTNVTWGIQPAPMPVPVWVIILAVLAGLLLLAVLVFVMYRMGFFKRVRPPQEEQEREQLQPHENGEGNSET
human αvβ3 receptor, sequence (P05106 27-788): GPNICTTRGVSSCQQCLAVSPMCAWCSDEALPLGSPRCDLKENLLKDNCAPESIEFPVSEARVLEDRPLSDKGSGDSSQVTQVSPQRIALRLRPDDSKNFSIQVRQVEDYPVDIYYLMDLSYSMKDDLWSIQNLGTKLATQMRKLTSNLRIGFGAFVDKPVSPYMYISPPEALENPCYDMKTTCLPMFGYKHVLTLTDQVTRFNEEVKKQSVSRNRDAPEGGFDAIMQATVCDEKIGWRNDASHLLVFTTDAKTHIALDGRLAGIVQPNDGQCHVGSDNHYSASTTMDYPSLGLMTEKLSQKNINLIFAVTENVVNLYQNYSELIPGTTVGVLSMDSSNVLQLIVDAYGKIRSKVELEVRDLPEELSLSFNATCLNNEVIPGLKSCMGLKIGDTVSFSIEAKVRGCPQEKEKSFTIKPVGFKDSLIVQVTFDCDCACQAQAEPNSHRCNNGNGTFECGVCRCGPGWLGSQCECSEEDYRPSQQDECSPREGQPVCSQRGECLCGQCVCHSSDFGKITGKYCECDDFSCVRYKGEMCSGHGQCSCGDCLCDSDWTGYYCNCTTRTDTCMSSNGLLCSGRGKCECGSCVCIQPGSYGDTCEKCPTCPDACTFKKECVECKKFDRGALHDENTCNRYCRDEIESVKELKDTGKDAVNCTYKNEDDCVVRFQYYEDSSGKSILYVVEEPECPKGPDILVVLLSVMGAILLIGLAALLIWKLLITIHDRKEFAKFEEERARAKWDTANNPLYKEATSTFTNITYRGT

Question: `CC(C)OC(=O)C(Cc1cc2cc(CCC(=O)NC3=NCCCN3)ccc2o1)NS(=O)(=O)c1cccc2ccccc12` (centres unmarked) [Example 14] was tested. Which pIC50 did it give?
Answer: Its pIC50 is 5.43.

same assay, conditions: Kistrin-coated plates, human αvβ3 receptor, 3 hours at ambient temperature, OD 450 nm; read-out: K/VnR IC50

Question: With `O=C(CCc1ccc2oc(CC(NC(=O)OCc3ccccc3)C(=O)O)cc2c1)NC1=NCCCN1` (stereo not drawn) [Example 1, 5-[3-oxo-3-[(1,4,5,6-tetrahydro-2-pyrimidinyl)amino)propyl]-α-[[(phenylmethoxy)carbonyl]-amino]-2-benzofuranepropanoic acid] as the compound, how does the pIC50 read?
Answer: Its pIC50 is 8.05.

Question: How did the pIC50 turn out when `O=C(CCc1ccc2oc(CC(NC(=O)OCC34CC5CC(CC(C5)C3)C4)C(=O)O)cc2c1)NC1=NCCCN1` (stereo not drawn) [Example 5, Mono(trifluoroacetate) of 5-[3-oxo-3-[(1,4,5,6-tetrahydro-2-pyrimidinyl)amino]propyl]-α-[[[(tricyclo[3.3.1.1^3,7]dec-1-yl)methoxy]carbonyl]amino]-2-benzofuranpropanoic acid] was run?
Answer: The pIC50 was 7.35.

Question: `O=C(CCc1ccc2oc(CC(NS(=O)(=O)NC(=O)OCC34CC5CC(CC(C5)C3)C4)C(=O)O)cc2c1)NC1=NCCCN1` (stereo not drawn) [Example 6, 5-[3-oxo-3-[(1,4,5,6-tetrahydro-2-pyrimidinyl)amino]-propyl]-α-[[[[[(tricyclo [2.3.1.1^3,7]dec-1-yl)methoxy]-carbonyl]amino]sulphonyl]amino]-2-benzofuranpropanoic acid] was tested. Which pIC50 did it give?
Answer: The pIC50 was 7.19.

Question: How did the pIC50 turn out when `O=C(CCc1ccc2oc(CC(NS(=O)(=O)NC(=O)OCc3ccccc3)C(=O)O)cc2c1)NC1=NCCCN1` (centres unmarked) [Example 7] was run?
Answer: Its pIC50 is 8.00.

Question: `O=C(CCc1ccc2oc(CC(NS(=O)(=O)NCc3ccccc3)C(=O)O)cc2c1)NC1=NCCCN1` (centres unmarked) [Example 8, Mono(trifluoroacetate) ofα-[[[(phenylmethyl)-amino]sulphonyl]amino]-5-[3-oxo-3-[(1,4,5,6-tetrahydro-2-pyrimidinyl)amino]propyl]-2-benzofuranpropanoic acid] was tested. Which pIC50 did it give?
Answer: Its pIC50 is 8.06.

Question: `CC(C)(C)c1ccc(S(=O)(=O)NC(Cc2cc3cc(CCC(=O)NC4=NCCCN4)ccc3o2)C(=O)O)cc1` (stereo not drawn) [Example 9, α-[[[4-(1,1-dimethylethyl)phenyl]sulphonyl]amino]-5-(3-oxo-3-[(1,4,5,6-tetrahydro-2-pyrimidinyl)amino]propyl]-2-benzofuranpropanoic acid] was tested. Which pIC50 did it give?
Answer: Its pIC50 is 7.82.

Question: `CC(C)c1ccc(S(=O)(=O)NC(Cc2cc3cc(CCC(=O)NC4=NCCCN4)ccc3o2)C(=O)O)cc1` (stereo not drawn) [Example 10, α-[[[4-(1-methylethyl)phenyl]sulphonyl]amino]-5-(3-oxo-3-[(1,4,5,6-tetrahydro-2-pyrimidinyl)amino]propyl]-2-benzofuranpropanoic acid] was tested. Which pIC50 did it give?
Answer: Its pIC50 is 8.04.

Question: With `CCCS(=O)(=O)NC(Cc1cc2cc(CCC(=O)NC3=NCCCN3)ccc2o1)C(=O)O` (centres unmarked) [Example 11] as the compound, how does the pIC50 read?
Answer: The pIC50 was 8.24.

Question: `CS(=O)(=O)NC(Cc1cc2cc(CCC(=O)NC3=NCCCN3)ccc2o1)C(=O)O` (centres unmarked) [Example 12] was tested. Which pIC50 did it give?
Answer: Its pIC50 is 8.17.

Question: With `O=C(CCc1ccc2oc(CC(NS(=O)(=O)c3cccc4ccccc34)C(=O)O)cc2c1)NC1=NCCCN1` (stereo not drawn) [Example 13, α-[(1-naphthalenylsulphonyl)amino]-5-[3-oxo-3-[(1,4,5,6-tetrahydro-2-pyrimidinyl)amino]propyl]—2-benzofuranpropanoic acid] as the compound, how does the pIC50 read?
Answer: The pIC50 was 8.26.
